Measurements as given in ChEMBL document CHEMBL5215006, “Antitumor Activity of Piceamycin by Upregulation of N-Myc Downstream-Regulated Gene 1 in Human Colorectal Cancer Cells” (J Nat Prod, 2022).
Calls of active or inactive are those of the source. The rule behind the calls is not given here.

Experiments:
HCT-116 [1] = test: Upregulation of cyclin-D1 protein expression in human HCT-116 cells with NDRG1 knockdown at 0.3 uM incubated for 24 hrs by immunoblotting assay; type: functional, cell-based
SW480 [2] = test: Induction of apoptosis in human SW480 cells assessed as early apoptotic cells at 0.35 uM incubated for 48 hrs by Annexin V-FITC/PI staining based flow cytometry analysis (Rvb= 2.07%); type: functional
SW480 [3] = test: Induction of apoptosis in human SW480 cells assessed as late apoptotic cells at 0.35 uM incubated for 48 hrs by Annexin V-FITC/PI staining based flow cytometry analysis (Rvb= 5.26%); type: functional
SW480 [4] = test: Inhibition of colony formation in human SW480 cells at 0.35 to 1.4 uM incubated for 72 hrs by crystal violet staining based assay; type: functional, cell-based; conditions: dose 0.35-1.4 µM, DDE = dose-dependent effect
HCT-116 [5] = test: Induction of apoptosis in human HCT-116 cells assessed as necrotic cells at 0.15 uM incubated for 48 hrs by Annexin V-FITC/PI staining based flow cytometry analysis (Rvb= 0.13%); type: functional
SW480 [6] = test: Cell cycle arrest in human SW480 cells assessed as accumulation at G0/G1 phase at 0.7 uM incubated for 24 hrs by RNaseA/propidium iodide staining based flow cytometry (reference value: 54.49 %); type: functional
HCT-116 [7] = test: Induction of apoptosis in human HCT-116 cells assessed as early apoptotic cells at 0.3 uM incubated for 48 hrs by Annexin V-FITC/PI staining based flow cytometry analysis (Rvb= 2.51%); type: functional
HCT-116 [8] = test: Anti-migratory activity against human HCT-116 cells assessed as downregulation of Snail protein expression at 0.075 to 0.3 uM incubated for 24 hrs by immunoblotting assay; type: functional, cell-based; conditions: dose 0.075-0.3 µM
SW480 [9] = test: Anti-migratory activity against human SW480 cells assessed as downregulation of N-cadherin gene expression at 0.35 to 1.4 uM incubated for 24 hrs by RT-PCR assay; type: functional, cell-based; conditions: dose 0.35-1.4 µM
HCT-116 [10] = test: Cell cycle arrest in human HCT-116 cells assessed as accumulation at G2/M phase at 0.15 uM incubated for 24 hrs by RNaseA/propidium iodide staining based flow cytometry (reference value: 28.41 %); type: functional
HCT-116 [11] = test: Cell cycle arrest in human HCT-116 cells assessed as downregulation of CDK6 protein expression at 0.075 to 0.3 uM incubated for 24 hrs by immunoblotting assay; type: functional, cell-based; conditions: dose 0.075-0.3 µM
SW480 [12] = test: Induction of apoptosis in human SW480 cells assessed as necrotic cells at 1.4 uM incubated for 48 hrs by Annexin V-FITC/PI staining based flow cytometry analysis (Rvb= 0.07%); type: functional
SW480 [13] = test: Antitumor activity against human SW480 cells assessed as upregulation of NDRG1 protein expression at 0.35 to 1.4 uM incubated for 24 hrs by immunoblotting assay; type: functional, cell-based; conditions: dose 0.35-1.4 µM, DDE = dose-dependent effect
SW480 [14] = test: Cell cycle arrest in human SW480 cells assessed as accumulation at G0/G1 phase at 1.4 uM incubated for 24 hrs by RNaseA/propidium iodide staining based flow cytometry (reference value: 54.49 %); type: functional
SW480 [15] = test: Cell cycle arrest in human SW480 cells assessed as accumulation at Sub-G1 phase at 0.7 uM incubated for 24 hrs by RNaseA/propidium iodide staining based flow cytometry (reference value: 3.2 %); type: functional
SW480 [16] = test: Cell cycle arrest in human SW480 cells assessed as downregulation of CDK6 protein expression at 0.35 to 1.4 uM incubated for 24 hrs by immunoblotting assay; type: functional, cell-based; conditions: dose 0.35-1.4 µM
HCT-116 [17] = test: Cell cycle arrest in human HCT-116 cells assessed as accumulation at G0/G1 phase at 0.3 uM incubated upto 48 hrs by RNaseA/propidium iodide staining based flow cytometry; type: functional
HCT-116 [18] = test: Antitumor activity against human HCT-116 cells xenografted Balb/c mouse assessed as reduction in tumor growth at 3 mg/kg,ip administrated for 18 days by 3 times per week; type: functional; parameters: scale not given: the % may be the effect or the level left; conditions: time 18 day
SW480 [19] = test: Induction of apoptosis in human SW480 cells assessed as viable cells at 1.4 uM incubated for 48 hrs by Annexin V-FITC/PI staining based flow cytometry analysis (Rvb= 92.6%); type: functional; conditions: read-out: Activity
HCT-116 [20] = test: Inhibition of colony formation in human HCT-116 cells at 0.075 to 0.3 uM incubated for 72 hrs by crystal violet staining based assay; type: functional, cell-based; conditions: dose 0.075-0.3 µM, DDE = dose-dependent effect
HCT-116 [21] = test: Induction of apoptosis in human HCT-116 cells assessed as upregulation of cleaved caspase-8 expression at 0.3 uM measured at 12 to 48 hrs by immunoblotting assay; type: functional, cell-based; conditions: time 12-48 hrs, TDE = time-dependent effect
SW480 [22] = test: Induction of apoptosis in human SW480 cells assessed as upregulation of cleaved caspase-8 expression at 1.4 uM measured at 12 to 48 hrs by immunoblotting assay; type: functional, cell-based; conditions: time 12-48 hrs, TDE = time-dependent effect
HCT-116 [23] = test: Antimigratory activity against highly liver metastatic human HCT-116 cells assessed as downregulation of Snail protein expression at 0.075 to 0.3 uM incubated for 24 hrs by immunoblotting assay; type: functional, cell-based; conditions: dose 0.075-0.3 µM
HCT-116 [24] = test: Induction of apoptosis in human HCT-116 cells assessed as viable cells at 0.075 uM incubated for 48 hrs by Annexin V-FITC/PI staining based flow cytometry analysis (Rvb= 94.18%); type: functional; conditions: read-out: Activity
HCT-116 [25] = test: Cell cycle arrest in human HCT-116 cells assessed as accumulation at G2/M phase at 0.3 uM incubated for 24 hrs by RNaseA/propidium iodide staining based flow cytometry (reference value: 28.41 %); type: functional
HCT-116 [26] = test: Anti-migratory activity against human HCT-116 cells assessed as upregulation of E-cadherin protein expression at 0.075 to 0.3 uM incubated for 24 hrs by immunoblotting assay; type: functional, cell-based; conditions: dose 0.075-0.3 µM
HCT-116 [27] = test: Antitumor activity against human HCT-116 cells xenografted Balb/c mouse assessed as decrease in Ki67 protein expression at 1 mg/kg,ip administrated for 18 days by 3 times per week by immunoblotting assay; type: functional, organism-based; conditions: time 18.0 day
HCT-116 [28] = test: Cell cycle arrest in human HCT-116 cells assessed as accumulation at Sub-G1 phase at 0.075 uM incubated for 24 hrs by RNaseA/propidium iodide staining based flow cytometry (reference value: 3.66 %); type: functional
HCT-116 [29] = test: Antiproliferative activity against human HCT-116 cells assessed as cell growth inhibition incubated for 72 hrs by SRB assay; type: functional, cell-based; conditions: HCT-116, 72 h
HCT-116 [30] = test: Anti-migratory activity against human HCT-116 cells assessed as downregulation of N-cadherin gene expression at 0.075 to 0.3 uM incubated for 24 hrs by RT-PCR assay; type: functional, cell-based; conditions: dose 0.075-0.3 µM
SW480 [31] = test: Induction of apoptosis in human SW480 cells assessed as late apoptotic cells at 0.7 uM incubated for 48 hrs by Annexin V-FITC/PI staining based flow cytometry analysis (Rvb= 5.26%); type: functional
HCT-116 [32] = test: Antimigratory activity against highly liver metastatic human HCT-116 cells assessed as downregulation of Snail gene expression at 0.075 to 0.3 uM incubated for 24 hrs by RT-PCR method; type: functional, cell-based; conditions: dose 0.075-0.3 µM
HCT-116 [33] = test: Antitumor activity against human HCT-116 cells assessed as upregulation of NDRG1 protein expression at 0.075 to 0.3 uM incubated for 24 hrs by immunoblotting assay; type: functional, cell-based; conditions: dose 0.075-0.3 µM, DDE = dose-dependent effect
SW480 [34] = test: Cell cycle arrest in human SW480 cells assessed as downregulation of CDK4 protein expression at 0.35 to 1.4 uM incubated for 24 hrs by immunoblotting assay; type: functional, cell-based; conditions: dose 0.35-1.4 µM

## C[C@@H]1\C=C/C=C/C=C\C=C\C=C\C(=O)C2=C(O)C(=O)C[C@@]2(C)/C=C/C=C\C=C/C(=O)NC1
HCT-116 [1]
  Activity: Active
SW480 [2]
  Activity: 2.62%
SW480 [3]
  Activity: 4.36%
SW480 [4]
  inhibition: Dde
HCT-116 [5]
  Activity: 0.18%
SW480 [6]
  Activity: 62.43%
HCT-116 [7]
  Activity: 44.79%
HCT-116 [8]
  Activity: Active
SW480 [9]
  Activity: Active
HCT-116 [10]
  Activity: 21.81%
HCT-116 [11]
  Activity: Active
SW480 [12]
  Activity: 0.19%
SW480 [13]
  Activity: Dde
SW480 [14]
  Activity: 65.42%
SW480 [15]
  Activity: 4.68%
SW480 [16]
  Activity: Active
HCT-116 [17]
  Activity: Active
HCT-116 [18]
  Activity: 89%
SW480 [19]
  viability at 1.4 µM: 31%
HCT-116 [20]
  inhibition: Dde
HCT-116 [21]
  Activity: Tde
SW480 [22]
  Activity: Tde
HCT-116 [23]
  Activity: Active
HCT-116 [24]
  viability at 0.075 µM: 84.8%
HCT-116 [25]
  Activity: 22.13%
HCT-116 [26]
  Activity: Active
HCT-116 [27]
  Activity: Active
HCT-116 [28]
  Activity: 4.46%
HCT-116 [29]
  IC50: 140 nM
HCT-116 [30]
  Activity: Active
SW480 [31]
  Activity: 17.78%
HCT-116 [32]
  Activity: Active
HCT-116 [33]
  Activity: Dde
SW480 [34]
  Activity: Active
